Molecules are shown by their SMILES.

The first assay has as its system OVCAR4. Briefly: drug sensitivity score (DSS) from 5-point dose-response viability curve (DSS (area-under-curve based score)); higher = more sensitive (stronger growth inhibition or killing); extreme values may be limits of the assay. Particulars: exposure time: 72 h; concentration range: 5 concentrations over 10,000-fold range. An outline of the steps: (§1)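 Each cell line and drug received a drug sensitivity score from Breeze software, where higher means more sensitive. Zero stands for no response. Scores came from CellTiter-Glo viability readings of ovarian cancer and normal ovarian cells, 1,500 per well in 384-well plates, after 3 days at 37°C, 5% CO2 with drugs at five concentrations over a 10,000-fold range.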
The compound `Oc1ncnc2[nH]ncc12` [Allopurinol] registered a drug sensitivity score of 0.2.

Compound `Cc1nc(NC(=O)N2CCC[C@H]2C(N)=O)sc1-c1ccnc(C(C)(C)C(F)(F)F)c1` [Alpelisib] yielded a drug sensitivity score of 0.9.

`O=C(Nc1cc(Oc2cc(F)c(NC(=O)C3(C(=O)Nc4ccc(F)cc4)CC3)cc2F)ccn1)C1CC1` [Altiratinib] displayed a drug sensitivity score of 3.3.

In the case of `CN1CC[C@H](c2c(O)cc(O)c3c(=O)cc(-c4ccccc4Cl)oc23)[C@H](O)C1` [Alvocidib], the drug sensitivity score came out at 13.3.

Compound `CCN(CC)CCNC(=O)c1c(C)[nH]c(/C=C2\C(=O)Nc3ccc(-c4csc(-c5ccccc5)n4)cc32)c1C` [Amcasertib] returned a drug sensitivity score of 0.8.

As to `CCC1(c2ccc(N)cc2)CCC(=O)NC1=O` (configuration not stated) [Aminoglutethimide], the drug sensitivity score worked out at 0.

On to `COc1cc(NS(C)(=O)=O)ccc1Nc1c2ccccc2nc2ccccc12` [Amsacrine], for which the drug sensitivity score turned out to be 0.2.

On to `S=C(NCc1ccc2c(c1)OCO2)N1CCN(c2ncnc3c2oc2ccccc23)CC1` [Amuvatinib], for which the drug sensitivity score stood at 0.9.

With `O=C1CN2Cc3c(ccc(Cl)c3Cl)N=C2N1` [Anagrelide], the drug sensitivity score came out at 0.

On to `CC(C)(C#N)c1cc(Cn2cncn2)cc(C(C)(C)C#N)c1` [Anastrozole], for which the drug sensitivity score worked out at 0.

Compound `CNC(=O)c1ccc(N2C(=S)N(c3cnc(C#N)c(C(F)(F)F)c3)C(=O)C23CCC3)cc1F` [Apalutamide] came in with a drug sensitivity score of 0.

Compound `N#CC1(c2ccc(NC(=O)c3cccnc3NCc3ccncc3)cc2)CCCC1` [Apatinib] had a drug sensitivity score of 0.

`O=C(Nc1ccc(OC(F)(F)Cl)cc1)c1cnc(N2CC[C@@H](O)C2)c(-c2cc[nH]n2)c1` [Asciminib] yielded a drug sensitivity score of 0.3.

`CC(C)c1c(C(=O)Nc2ccccc2)c(-c2ccccc2)c(-c2ccc(F)cc2)n1CC[C@@H](O)C[C@@H](O)CC(=O)O` [Atorvastatin]: the drug sensitivity score was found to be 0.

In the case of `CC(=O)OC[C@H]1O[C@@H]([S-])[C@H](OC(C)=O)[C@@H](OC(C)=O)[C@@H]1OC(C)=O.CCP(CC)CC.[Au+]` [Auranofin], the drug sensitivity score came to 1.7.

In the case of `CNC(=O)c1ccccc1Sc1ccc2c(/C=C/c3ccccn3)n[nH]c2c1` [Axitinib], the drug sensitivity score came out at 0.2.

The next assay deals with OVCAR5. Described as above. The conditions noted are these: exposure time: 72 h; concentration range: 5 concentrations over 10,000-fold range. An outline of the steps: as §1
`COc1ccc(-c2ccc3c(N4CCOC[C@@H]4C)nc(N4CCOC[C@@H]4C)nc3n2)cc1CO` [AZD8055] registered a drug sensitivity score of 18.4.

`N#Cc1ccc2[nH]c(O)c(-c3ccc(CN4CCOCC4)cn3)c2c1` [AZD-1080] gave a drug sensitivity score of 0.

In the case of `Cc1ncc(-c2ccnc(Nc3ccc(S(C)(=O)=O)cc3)n2)n1C(C)C` [AZD-5438], the drug sensitivity score amounted to 9.2.

`Cc1cc([C@@H](C)Nc2ccccc2C(=O)O)c2nc(N3CCOCC3)cc(=O)n2c1` [AZD-6482] had a drug sensitivity score of 0.1.

In turn, `C[C@@H](Nc1cc(F)cc(F)c1)c1cc(C(=O)N(C)C)cc2c(=O)cc(N3CCOCC3)oc12` [AZD-8186] came in with a drug sensitivity score of 1.9.

On to `CCN1CCN(Cc2ccc(Nc3ncc(F)c(-c4cc(F)c5nc(C)n(C(C)C)c5c4)n3)nc2)CC1` [Abemaciclib], for which the drug sensitivity score was 7.4.

As for `CN(C)Cc1c(C(=O)NCCOc2ccc(C(=O)NO)cc2)oc2ccccc12` [Abexinostat], the drug sensitivity score came out at 21.7.

For `C[C@]12CC[C@H](O)CC1=CC[C@@H]1[C@@H]2CC[C@]2(C)C(c3cccnc3)=CC[C@@H]12` [Abiraterone], the drug sensitivity score is 0.

Consider `CC#CC(=O)N1CCC[C@H]1c1nc(-c2ccc(C(=O)Nc3ccccn3)cc2)c2c(N)nccn12` [Acalabrutinib], for which the drug sensitivity score was 0.2.

Take `COc1cc(C)c(/C=C/C(C)=C/C=C/C(C)=C/C(=O)O)c(C)c1C` [Acitretin]: the drug sensitivity score is 0.

As to `CN(C)C/C=C/C(=O)Nc1cc2c(Nc3ccc(F)c(Cl)c3)ncnc2cc1O[C@H]1CCOC1` [Afatinib], the drug sensitivity score worked out at 3.4.

Turning to `Cn1ncc(Cl)c1-c1cc(C(=O)N[C@H](CN)Cc2cccc(F)c2)sc1Cl` [Afuresertib], the drug sensitivity score worked out at 1.2.

For `COc1cccc2c1C(=O)c1c(O)c3c(c(O)c1C2=O)C[C@@](O)(/C(CO)=N/NC(=O)CCCCCN1C(=O)C=CC1=O)C[C@@H]3O[C@H]1C[C@H](N)[C@H](O)[C@H](C)O1` [Aldoxorubicin], the drug sensitivity score amounted to 6.5.

`CCc1cc2c(cc1N1CCC(N3CCOCC3)CC1)C(C)(C)c1[nH]c3cc(C#N)ccc3c1C2=O` [Alectinib]: the drug sensitivity score was 1.5.

`COc1cc(Nc2ncc3c(n2)-c2ccc(Cl)cc2C(c2c(F)cccc2OC)=NC3)ccc1C(=O)O` [Alisertib] gave a drug sensitivity score of 6.9.

In the case of `Oc1ncnc2[nH]ncc12` [Allopurinol], the drug sensitivity score turned out to be 0.

For `Cc1nc(NC(=O)N2CCC[C@H]2C(N)=O)sc1-c1ccnc(C(C)(C)C(F)(F)F)c1` [Alpelisib], the drug sensitivity score was 4.2.

`O=C(Nc1cc(Oc2cc(F)c(NC(=O)C3(C(=O)Nc4ccc(F)cc4)CC3)cc2F)ccn1)C1CC1` [Altiratinib] showed a drug sensitivity score of 6.6.

On to `CN1CC[C@H](c2c(O)cc(O)c3c(=O)cc(-c4ccccc4Cl)oc23)[C@H](O)C1` [Alvocidib], for which the drug sensitivity score worked out at 16.7.

`CCN(CC)CCNC(=O)c1c(C)[nH]c(/C=C2\C(=O)Nc3ccc(-c4csc(-c5ccccc5)n4)cc32)c1C` [Amcasertib] gave a drug sensitivity score of 1.3.

In turn, `CCC1(c2ccc(N)cc2)CCC(=O)NC1=O` (configuration not stated) [Aminoglutethimide] yielded a drug sensitivity score of 0.

Compound `COc1cc(NS(C)(=O)=O)ccc1Nc1c2ccccc2nc2ccccc12` [Amsacrine] displayed a drug sensitivity score of 6.

`S=C(NCc1ccc2c(c1)OCO2)N1CCN(c2ncnc3c2oc2ccccc23)CC1` [Amuvatinib]: the drug sensitivity score came to 1.8.

Compound `O=C1CN2Cc3c(ccc(Cl)c3Cl)N=C2N1` [Anagrelide] had a drug sensitivity score of 0.

In the case of `CC(C)(C#N)c1cc(Cn2cncn2)cc(C(C)(C)C#N)c1` [Anastrozole], the drug sensitivity score came out at 0.

For the compound `CNC(=O)c1ccc(N2C(=S)N(c3cnc(C#N)c(C(F)(F)F)c3)C(=O)C23CCC3)cc1F` [Apalutamide], the drug sensitivity score worked out at 0.

Compound `N#CC1(c2ccc(NC(=O)c3cccnc3NCc3ccncc3)cc2)CCCC1` [Apatinib] registered a drug sensitivity score of 0.5.

As for `O=C(Nc1ccc(OC(F)(F)Cl)cc1)c1cnc(N2CC[C@@H](O)C2)c(-c2cc[nH]n2)c1` [Asciminib], the drug sensitivity score was 0.4.

`CC(C)c1c(C(=O)Nc2ccccc2)c(-c2ccccc2)c(-c2ccc(F)cc2)n1CC[C@@H](O)C[C@@H](O)CC(=O)O` [Atorvastatin] returned a drug sensitivity score of 0.4.

`CC(=O)OC[C@H]1O[C@@H]([S-])[C@H](OC(C)=O)[C@@H](OC(C)=O)[C@@H]1OC(C)=O.CCP(CC)CC.[Au+]` [Auranofin] registered a drug sensitivity score of 1.3.

Regarding `CNC(=O)c1ccccc1Sc1ccc2c(/C=C/c3ccccn3)n[nH]c2c1` [Axitinib], the drug sensitivity score came to 0.8.

(Values after the supplement of paper PMC11616607.)
